Assay: Thermogravimetric analysis (TGA) / DSC of API vaporisation from crosslinked β-cyclodextrin micro sponge complex under nitrogen purge
Assay type: physicochemical
Experimental: Differential scanning calorimetry (“DSC”) and thermogravimetric analysis (“TGA”) was performed on a Netzsch STA 409PC/PG with Infrared (“IR”) analysis of the volatiles under a purge of nitrogen gas. TGA was completed at a temperature of 250° C.
The suitability of an API for vaping from the insoluble β-cyclodextrin micro sponge, or from other crosslinked polysaccharide micro sponges, can be tested using TGA. When TGA is applied, a sample of API bound with the insoluble β-cyclodextrin micro sponge is heated at a constant rate, simulating the heat used in a vaporisation device. The sample is kept under a constant flow of nitrogen gas, simulating the inhalation of the user, drawing volatile compounds away from the heated sample.
Vaporization kinetics refer to the rate of dissociation of the API as vapour from the micro sponge, as determined by TGA.

## C=C(C)[C@@H]1CCC(C)=C[C@H]1c1c(O)cc(CCCCC)cc1O [CBD, cannabidiol]
Example I, ramp rate 10° C. min^-1
  onset temperature of vaporisation of CBD (TGA): 160 °C

## CCCCCc1cc(O)c(C/C=C(\C)CCC=C(C)C)c(O)c1 [CBG, cannabigerol]
Examples II, IV, V, VI, ramp rate 5° C. min^-1
  onset temperature of vaporisation of API (TGA): 190 °C

## CCCCCc1cc(O)c(C/C=C(\C)CCC=C(C)C)c(O)c1C(=O)O [CBGA, cannabigerolic acid]
Example III, ramp rate 5° C. min^-1
  onset temperature of vaporisation of CBG following decarboxylation from CBGA (TGA): 190 °C

— patent US20240115715A1, “PHARMACEUTICAL COMPOSITIONS FOR VAPORIZATION AND INHALATION” (GROW BIOTECH PLC, priority 2022, published 2024)
